# From article PMC3217308 (Journal of Agricultural and Food Chemistry, 2011)
# Target: T1, human sweet taste receptor, hT1R2/hT1R3 (Homo sapiens, UniProt Q7RTX0+Q8TE23)
# T1 sequence (Q8TE23 20-839): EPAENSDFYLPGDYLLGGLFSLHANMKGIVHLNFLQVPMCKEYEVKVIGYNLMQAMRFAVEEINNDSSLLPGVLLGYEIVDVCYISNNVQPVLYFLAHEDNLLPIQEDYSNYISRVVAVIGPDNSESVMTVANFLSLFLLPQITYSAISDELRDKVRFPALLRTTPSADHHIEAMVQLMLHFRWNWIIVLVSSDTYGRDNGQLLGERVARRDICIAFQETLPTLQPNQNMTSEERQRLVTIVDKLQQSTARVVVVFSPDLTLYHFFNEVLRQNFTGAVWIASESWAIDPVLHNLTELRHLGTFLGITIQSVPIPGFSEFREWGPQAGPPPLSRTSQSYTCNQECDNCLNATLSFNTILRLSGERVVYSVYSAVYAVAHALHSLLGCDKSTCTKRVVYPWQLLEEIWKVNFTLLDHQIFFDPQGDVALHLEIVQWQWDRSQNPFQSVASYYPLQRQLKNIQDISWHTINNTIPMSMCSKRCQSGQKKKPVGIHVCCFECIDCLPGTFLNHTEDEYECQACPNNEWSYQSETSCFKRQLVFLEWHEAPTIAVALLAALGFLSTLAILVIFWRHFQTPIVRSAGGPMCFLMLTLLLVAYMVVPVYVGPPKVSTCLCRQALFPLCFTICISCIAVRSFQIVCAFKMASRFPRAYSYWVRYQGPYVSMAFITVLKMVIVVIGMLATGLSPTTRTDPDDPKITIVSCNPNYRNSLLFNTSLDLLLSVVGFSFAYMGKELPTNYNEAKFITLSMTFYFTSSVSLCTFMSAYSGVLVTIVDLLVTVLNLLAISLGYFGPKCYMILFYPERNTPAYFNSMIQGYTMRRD
# T1 sequence (Q7RTX0 21-852): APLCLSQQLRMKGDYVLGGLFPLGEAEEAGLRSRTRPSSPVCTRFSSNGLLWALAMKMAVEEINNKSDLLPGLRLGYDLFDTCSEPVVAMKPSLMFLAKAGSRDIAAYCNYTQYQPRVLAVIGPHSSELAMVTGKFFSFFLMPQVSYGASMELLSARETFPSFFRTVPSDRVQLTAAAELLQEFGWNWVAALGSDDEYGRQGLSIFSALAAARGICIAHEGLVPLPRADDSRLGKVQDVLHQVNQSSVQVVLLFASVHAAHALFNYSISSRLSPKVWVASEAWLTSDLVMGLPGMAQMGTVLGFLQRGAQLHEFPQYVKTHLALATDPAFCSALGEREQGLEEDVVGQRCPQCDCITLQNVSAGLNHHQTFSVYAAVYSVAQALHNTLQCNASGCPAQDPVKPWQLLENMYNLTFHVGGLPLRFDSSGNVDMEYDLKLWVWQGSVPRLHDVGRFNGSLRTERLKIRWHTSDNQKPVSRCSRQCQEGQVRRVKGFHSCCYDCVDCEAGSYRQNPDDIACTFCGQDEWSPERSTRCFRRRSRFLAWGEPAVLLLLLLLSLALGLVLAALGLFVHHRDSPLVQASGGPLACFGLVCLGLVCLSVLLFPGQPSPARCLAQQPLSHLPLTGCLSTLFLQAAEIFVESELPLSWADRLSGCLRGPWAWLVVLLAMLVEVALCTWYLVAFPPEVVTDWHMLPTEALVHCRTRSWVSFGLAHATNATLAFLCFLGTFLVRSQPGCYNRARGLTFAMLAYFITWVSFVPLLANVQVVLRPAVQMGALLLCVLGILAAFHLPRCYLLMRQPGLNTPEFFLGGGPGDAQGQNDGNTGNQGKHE
# Experiment: Luminescence assay
# Type: cell-based
# Conditions: aequorin assay, 10–40 nM BCECF
substance,measurement,value
"2′,7′-bis-(2-carboxyethyl)-5-(and-6)-carboxyfluorescein [BCECF]",nonspecific signals,did not produce nonspecific signals
